How the values were obtained:
[1] = Lipophilicity, octanol-PBS partitioning; type: physicochemical
Procedure: (§1) The ligand ATSM-FITC(4) was radiolabeled with ^64CuCl2 ions in 0.1M ammonium acetate buffer (pH 6.8) at 60° C., with a radiochemical yield of >97% (FIG. 3). Among the various positron-emitting radioisotopes of copper (^60Cu, ^61Cu, ^62Cu, or ^64Cu), Cu-64 has a moderately long half-life (12.7 hours) and a decay mode favorable for PET imaging (17.8% β+ decay). […] The proportion of demetalized ^64CuS in the intact ^64Cu-ATSM-FITC(6) complex may be easily quantified by radio-TLC analysis. The Rf value of ^64Cu-ATSM-FITC(6) was 0.72 on a silica plate with mobile phase (ethyl acetate methanol (95:5)), and ^64CuS remained at the origin of the TLC plate (FIG. 22). As the concentration of H2S increased, the decomplexation percentage of ^64Cu-ATSM-FITC(6) increased proportionally and reached a plateau at 20 μM of H2S (FIG. 15C). […] The lipophilicity of the radiotracer was measured using the general octanol-PBS partitioning method.

brain H2S [2] = experiment: PET/CT imaging in Parkinson's disease rat model; type: in vivo, SD rats; settings: PET/CT 1 hour after injection of about 1 mCi
Procedure: The Parkinson's disease-induced rat model was prepared by taking 7-week-old SD rats and injecting 6-hydroxydopamine (6-OHDA) into the medial forebrain bundle using a Hamilton syringe after drilling a small 1.5 mm hole in the rat's skull near the parietal region at 8 weeks of age.
In addition, the uptake pattern was also different between normal rats and the Parkinson's disease rat model (FIG. 23).

[3] = Decomplexation of radiolabeled probe by H2S (radio-TLC)
Procedure: as §1

[4] = Biodistribution in normal BALB/c mice (γ-counter); type: in vivo
Procedure: BALB/c mice (male, 9 weeks old) were used to investigate the systemic distribution and clearance rate of ^64Cu-ATSM-FITC (6). ^64Cu-ATSM-FITC (6) with a radioactivity of 0.56 to 0.74 MBq in a saline solution (5% DMSO, 200 μL) was injected into mice through the tail vein under anesthesia. […] Blood was drawn, and organs comprising heart, lung, muscle, fat, bone, spleen, kidney, liver, intestine, and brain were harvested, weighed, and analyzed by using a γ-counter (Wallac Wizard 1480, PerkinElmer, France). Radioactivity was calculated as percentage of injected dose per gram (% ID/g).
The distribution of ^64Cu-ATSM-aniline in the body was confirmed by using the same method as described in Experimental Methods 5 and 7 above.

brain H2S [5] = experiment: Animal PET/CT brain imaging, normal and AOAA-treated BALB/c mice; type: in vivo; settings: 1 hour after injection
Procedure: Male BALB/c mice (6 to 9 weeks old) were purchased from Hyochang Bioscience (Daegu, Korea). All mice were housed at 20 to 24° C. together with sufficient water and commercial food under a 12-h day/night cycle. For studies on H2S inhibition, male BALB/c mice were injected intraperitoneally with AOAA ((O-(carboxymethyl) hydroxylamine hemihydrochloride, 10 mg/kg, Sigma-Aldrich (C13408-1G)), 1 hour before administered with ^64Cu-ATSM-FITC(6) into the tail vein.
Animal PET/CT images were obtained by using a nanoScan PET/CT scanner (PET 82S, Mediso, Budapest, Hungary). Radiolabeled ^64Cu-ATSM-FITC(6) (˜11 MBq, 200 μL of 5% DMSO/PBS) was injected via tail vein into normal and AOAA-treated BALB/c mice (n=4), and the mice were scanned for 20 minutes at 1 hour after the injection. For PET image-based quantification, regions of interest (ROIs) were manually drawn on the whole brain.
Detection was performed in 1:3 matching smode with four iterations with six subsets. Analysis of the acquired PET/CT images was performed by using the Mediso InterView Fusion software package. The uptake of ^64Cu-ATSM-FITC(6) in each tissue was normalized to the administered radioactive dose and animal body weight and expressed as the average percent injected dose per gram (% ID/g).

brain H2S [6] = experiment: LPS neuroinflammation model, PET imaging and γ-counter quantification of brain hemispheres; type: in vivo, mice; settings: LPS-treated animals
Procedure: Mice were mounted in a stereotaxic frame under isoflurane anesthesia. Sterile saline (control) or LPS (5 mg/mL, Sigma-Aldrich, Saint Louis, MO, USA, catalog number: L2630) was injected unilaterally into the right striatum (anterior-posterior [AP], 0.5 mm, medial) of each mouse by using a 28-gauge Hamilton syringe attached to an automatic microinjector. Injection was carried out at a rate of 0.2 μL/min for 10 minutes. After each injection, the needle was left in place for 5 minutes before being slowly retracted.
Brain inflammation and control models were prepared 2 days prior to the study on PET imaging (n=5 each). ^64Cu-ATSM-FITC(6) (˜18 MBq, 200 μL of 5% DMSO/PBS) was injected into mice, and the mice were scanned for 10 minutes at 10 minutes after the injection. In addition, Sprague Dawley rats were injected with radiolabeled ^64Cu-ATSM-FITC(6) (˜18 MBq, 200 μL of 5% DMSO/PBS) through the tail vein, and the mice were scanned for 20 minutes at 1 hour after the injection. CT images were generated immediately without the use of additional contrast agents. All PET images were reconstructed by using the Mediso Tera-Tomo 3D iterative algorithm, together with corrections for interaction depth, radionuclide decay, detector normalization, decision dead time, and attenuation.

[7] = In vitro stability in FBS and PBS (radio-TLC demetalization); type: in vitro ADME; settings: 37° C.
Procedure: ^64Cu-ATSM-FITC(6) (10 μL, 37 MBq) was first mixed with FBS (500 μL) or PBS (pH 7.4) at the same volume, and the mixture was incubated at 37° C. Demetalization was monitored using radio-TLC (silica, MeOH:EtOAc=5:95) for up to 12 hours.
Radioactively labeled ^64Cu-ATSM-FITC(6) (10 μL, 37 MBq) was mixed with 100 μL of FBS or PBS at pH 7.4 in the same amount and incubated at 37° C. using a Thermomixer (500 rpm). In addition, demetalization was measured by radio-TLC (silica, MeOH:EtOAC=5:95) every 4 hours for up to 24 hours.

CNC([S-])=NN=C(C)C(C)=NN=C([S-])Nc1ccc(-c2c3ccc(=O)cc-3oc3cc(O)ccc23)c(C(=O)O)c1.[64Cu+2] [^64Cu-ATSM-FITC(6)]
log D7.4 [1]: 1.70±0.05
uptake in brain regions in Parkinson's disease rat model versus normal rats (brain H2S [2]): significantly lower
reaction with H2S ([3]; forms insoluble ^64CuS precipitate): reacted immediately
H2S concentration at which decomplexation percentage reached a plateau ([3]; radio-TLC): 20 µM
total injected activity found in the whole brain [4]: more than 3.3%
brain uptake ([4]; at 5 minutes, maintained up to 2 hours after injection): greater than 9 % ID/g
uptake in the heart, lungs, and kidneys ([4]; initially high): gradually decreased over time
brain uptake in PET imaging (brain H2S [5]; AOAA-treated mice (10 mg/kg i.p.)): 11.4±2.0 % ID/g
brain uptake in PET imaging (brain H2S [5]; control mice): 15.0±1.8 % ID/g
increase of radioactivity at the injection site (right hemisphere) versus left hemisphere (brain H2S [6]): 31%
stability in FBS and PBS [7]: high stability
degradation ([7]; FBS and PBS, up to 24 hours after incubation): Less than 10%
